Laboratory results from patent US20230202989A1, “COMPOUNDS” (JANSSEN PHARMACEUTICA NV, priority 2020, published 2023).
Like-named read-outs stand apart in the source and are kept apart here.

What was measured:
IL-1β = test: PBMC assay: inhibition of IL-1β release after LPS stimulation (MSD); assay type: cell-based; settings: human PBMCs, 100 ng/ml LPS for 6 hrs, MSD, 96 well plates, read-out: IL1β IC50
Method: Peripheral venous blood s collected from health individuals and human peripheral blood mononuclear cells (PBMCs) ere isolated from blood by Ficoll Histopaque (Sigma-Aldrich, A0561) density gradient centrifugation. After isolation, PBMCs were stored in liquid nitrogen for later use. Upon thawing, PBMC cell viability was determined in growth medium (RPMI media supplemented with 10% fetal bovine serum, 1% Pen-Strep and 1% L-glutamine). […] PBMCs were added at a density of 7.5×10^4 cells per well and incubated for 30 min in a 5% CO2 incubator at 37° C. LPS stimulation was performed by addition of 100 ng/ml LPS (final concentration, Invivogen, tlrl-smlps) for 6 hrs followed by collection of cellular supernatant and the analysis of IL-1β (μM) and TNF cytokines levels (μM) via MSD technology according to manufacturers' guidelines (MSD, K151A0H).
(§1) The IC50 values (for IL-1β) and EC50 values (TNF) were obtained on compounds of the invention/examples, and are depicted in the following table: […]

TNF = test: PBMC assay: TNF cytokine levels after LPS stimulation (MSD); assay type: cell-based; settings: human PBMCs, 100 ng/ml LPS for 6 hrs
Method: Peripheral venous blood s collected from health individuals and human peripheral blood mononuclear cells (PBMCs) ere isolated from blood by Ficoll Histopaque (Sigma-Aldrich, A0561) density gradient centrifugation. After isolation, PBMCs were stored in liquid nitrogen for later use. Upon thawing, PBMC cell viability was determined in growth medium (RPMI media supplemented with 10% fetal bovine serum, 1% Pen-Strep and 1% L-glutamine). Compounds were spotted in a 1:3 serial dilution in DMSO and diluted to the final concentration in 30 μl medium in 96 well plates (Falcon, 353072). PBMCs were added at a density of 7.5×10^4 cells per well and incubated for 30 min in a 5% CO2 incubator at 37° C. LPS stimulation was performed by addition of 100 ng/ml LPS (final concentration, Invivogen, tlrl-smlps) for 6 hrs followed by collection of cellular supernatant and the analysis of IL-1β (μM) and TNF cytokines levels (μM) via MSD technology according to manufacturers' guidelines (MSD, K151A0H).
as §1

Row | SMILES | IC50 (IL-1β; Homo sapiens, PBMC, 6 h) [nM] | EC50 (TNF; Homo sapiens, PBMC, 6 h) [nM] | IC50 (IL-1β) [nM] | EC50 (TNF) [nM]
1 | CC(C)c1nn(CC(=O)Nc2ccc3nccn3c2)c(=O)c2ccc(C(F)(F)F)cc12 [Final Cpd X31] | 233 | > 20000 | – | –
2 | O=C(Cn1nc(C(F)F)c2cc(C(F)(F)F)ccc2c1=O)Nc1ccc2nncn2c1 [Final Cpd X32] | 235 | > 20000 | – | –
3 | CC(C)c1nn(CC(=O)Nc2ccc(=O)n(C)n2)c(=O)c2ccc(C(F)(F)F)cc12 [Final Cpd X33] | 252 | > 20000 | – | –
4 | O=C(Cn1nc(C2CC2)c2cc(C(F)(F)F)ccc2c1=O)Nc1ccc2nncn2n1 [Final Cpd X34] | 255 | > 20000 | – | –
5 | CC(C)c1nn(CC(=O)N[C@H]2C[C@](O)(C(F)(F)F)C2)c(=O)c2ccc(C(F)(F)F)cc12 [Final Cpd X35] | – | > 20000 | 303 | –
6 | C[C@]1(O)C[C@@H](NC(=O)Cn2nc(C(F)F)c3cc(C(F)(F)F)ccc3c2=O)C1 [Final Cpd X36] | 304 | > 20000 | – | –
7 | CCN1C[C@H](F)C[C@@H](NC(=O)Cn2nc(C(C)C)c3cc(C(F)(F)F)ccc3c2=O)C1 [Final Cpd X37] | 316 | > 20000 | – | –
8 | CC(C)c1nn(CC(=O)Nc2ccc3ncnn3c2)c(=O)c2ccc(C(F)(F)F)cc12 [Final Cpd X38] | 331 | > 20000 | – | –
9 | CC(C)c1nn(CC(=O)Nc2cc(C(F)F)[nH]n2)c(=O)c2ccc(C(F)(F)F)cc12 [Final Cpd X39] | 347 | 12600 | – | –
10 | CC(C)c1nn(CC(=O)Nc2ccc(=O)n(CCN(C)C)n2)c(=O)c2ccc(C(F)(F)F)cc12 [Final Cpd X40] | 349 | > 20000 | – | –
11 | CC(C)c1nn(CC(=O)N[C@H]2CC[C@@H](O)CC2)c(=O)c2ccc(C(F)(F)F)cc12 [Final Cpd X42] | 353 | 15000 | – | –
12 | CC(C)c1nn(CC(=O)N[C@H]2CC[C@H](O)CC2)c(=O)c2ccc(C(F)(F)F)cc12 [Final Cpd X44] | 374 | > 20000 | – | –
13 | O=C(Cn1nc(C2CC2)c2cc(C(F)(F)F)ccc2c1=O)N[C@H]1CN(C2CC2)CC[C@H]1O [Final Cpd X45] | 384 | > 20000 | – | –
14 | CC(C)c1nn(CC(=O)N[C@H]2CC[C@@](C)(O)CC2)c(=O)c2ccc(C(F)(F)F)cc12 [Final Cpd X46] | 388 | > 20000 | – | –
15 | CC(C)c1nn(CC(=O)Nc2ccc3ncn(C)c3n2)c(=O)c2ccc(C(F)(F)F)cc12 [Final Cpd X47, 2-(4-isopropyl-1-oxo-6-(trifluoromethyl)phthalazin-2(1H)-yl)-N-(3-methyl-3H-imidazo[4,5-b]pyridin-5-yl)acetamide] | 394 | > 20000 | – | –
16 | Cc1ncc2ccc(NC(=O)Cn3nc(C(C)C)c4cc(C(F)(F)F)ccc4c3=O)cn12 [Final Cpd X48] | 398 | > 20000 | – | –
17 | CC(C)c1nn(CC(=O)Nc2ccc3nnn(C)c3c2)c(=O)c2ccc(C(F)(F)F)cc12 [Final Cpd X49] | 400 | 9700 | – | –
18 | O=C(Cn1nc(C(F)F)c2cc(C(F)(F)F)ccc2c1=O)Nc1ccncn1 [Final Cpd X50] | 438 | > 20000 | – | –
19 | Cc1cc(NC(=O)Cn2nc(C(C)C)c3cc(C(F)(F)F)ccc3c2=O)nn(C)c1=O [Final Cpd X51] | 440 | > 20000 | – | –
20 | CC(C)c1nn(CC(=O)Nc2cc(Br)c3nncn3c2)c(=O)c2ccc(C(F)(F)F)cc12 [Final Cpd X52, N-(8-Bromo-[1,2,4]triazolo[4,3-a]pyridin-6-yl)-2-(4-isopropyl-1-oxo-6-(trifluoromethyl)phthalazin-2(1H)-yl)acetamide] | 442 | > 20000 | – | –
21 | Cc1cn2nc(NC(=O)Cn3nc(C(C)C)c4cc(C(F)(F)F)ccc4c3=O)ccc2n1 [Final Cpd X53] | 444 | > 20000 | – | –
22 | CC(C)c1nn(CC(=O)Nc2ccn3ccnc3c2)c(=O)c2ccc(C(F)(F)F)cc12 [Final Cpd X54] | 451 | > 20000 | – | –

Row | SMILES | IC50 (IL-1β; Homo sapiens, PBMC, 6 h) [nM] | EC50 (TNF; Homo sapiens, PBMC, 6 h) [nM] | IC50 (IL-1β) [nM] | EC50 (TNF) [nM]
23 | CC(C)c1nn(CC(=O)N[C@H]2CCc3nncn3C2)c(=O)c2ccc(C(F)(F)F)cc12 [Final Cpd X55] | 460 | > 20000 | – | –
24 | CC(C)c1nn(CC(=O)N[C@H]2CC[C@@H]2O)c(=O)c2ccc(C(F)(F)F)cc12 [Final Cpd X56] | 493 | > 20000 | – | –
25 | Cc1nc2ccc(NC(=O)Cn3nc(C(C)C)c4cc(C(F)(F)F)ccc4c3=O)cn2n1 [Final Cpd X57] | 545 | > 20000 | – | –
26 | CC(=O)c1nn(CC(=O)Nc2ccc3nncn3c2)c(=O)c2ccc(C(F)(F)F)cc12 [Final Cpd X58] | 551 | > 20000 | – | –
27 | CC(c1nn(CC(=O)Nc2ccc3nncn3c2)c(=O)c2ccc(C(F)(F)F)cc12)C(F)(F)F (centres unmarked) [Final Cpd X59] | 561 | > 20000 | – | –
28 | CC(C)c1nn(CC(=O)N[C@H]2CCCN3CCC[C@@H]23)c(=O)c2ccc(C(F)(F)F)cc12 [Final Cpd X60] | 585 | > 20000 | – | –
29 | O=C(Cn1nc(C(O)C(F)(F)F)c2cc(C(F)(F)F)ccc2c1=O)Nc1ccc2nncn2c1 (centres unmarked) [Final Cpd X61] | 588 | > 20000 | – | –
30 | COCCn1nc(NC(=O)Cn2nc(C(C)C)c3cc(C(F)(F)F)ccc3c2=O)ccc1=O [Final Cpd X62] | 591 | > 20000 | – | –
31 | CC(C)c1nn(CC(=O)Nc2ccc3nnc(Cl)n3n2)c(=O)c2ccc(C(F)(F)F)cc12 [Final Cpd X63] | 600 | > 20000 | – | –
32 | CC(C)c1nn(CC(=O)Nc2ccc3nc(C(F)(F)F)cn3c2)c(=O)c2ccc(C(F)(F)F)cc12 [Final Cpd X64, 2-(4-isopropyl-1-oxo-6-(trifluoromethyl)phthalazin-2(1H)-yl)-N-(2-(trifluoromethyl)imidazo[1,2-a]pyridin-6-yl)acetamide] | 668 | > 20000 | – | –
33 | CC(C)c1nn(CC(=O)N[C@H]2C[C@](O)(C(F)(F)F)C2)c(=O)c2ccc(C(F)(F)F)cc12 [Final Cpd X65] | – | – | 668 | > 20000
34 | CC(O)c1nn(CC(=O)Nc2ccc3nncn3c2)c(=O)c2ccc(C(F)(F)F)cc12 (centres unmarked) [Final Cpd X66] | 670 | > 20000 | – | –
35 | CC(C)c1nn(CC(=O)N[C@H]2C[C@@H](O)C2)c(=O)c2ccc(C(F)(F)F)cc12 [Final Cpd X67] | 679 | > 20000 | – | –
36 | Cc1nnc2n1CC(NC(=O)Cn1nc(C(C)C)c3cc(C(F)(F)F)ccc3c1=O)CC2 (centres unmarked) [Final Cpd X68] | 728 | > 20000 | – | –
37 | CC(C)c1nn(CC(=O)Nc2ncnc3c2ncn3C)c(=O)c2ccc(C(F)(F)F)cc12 [Final Cpd X69] | 735 | > 20000 | – | –
38 | CC(C)c1nn(CC(=O)N[C@H]2CN(CC[C@@H](C)O)CC[C@H]2O)c(=O)c2ccc(C(F)(F)F)cc12 [Final Cpd X70] | 740 | > 20000 | – | –
39 | CC(C)c1nn(CC(=O)Nc2ccc3nncn3c2)c(=O)c2c(F)cc(C(F)(F)F)cc12 [Final Cpd X71] | 751 | > 20000 | – | –
40 | CC(C)c1nn(CC(=O)Nc2cnc3nccn3c2)c(=O)c2ccc(C(F)(F)F)cc12 [Final Cpd X73] | 792 | > 20000 | – | –
41 | Cc1c(NC(=O)Cn2nc(C(C)C)c3cc(C(F)(F)F)ccc3c2=O)ccc2nccn12 [Final Cpd X74] | 804 | > 20000 | – | –
42 | CC(O)c1nn(CC(=O)N[C@H]2C[C@@](C)(O)C2)c(=O)c2ccc(C(F)(F)F)cc12 (some centres unmarked) [Final Cpd X75] | 818 | > 20000 | – | –
43 | O=C(Cn1nc(CCC(F)(F)F)c2cc(C(F)(F)F)ccc2c1=O)Nc1ccc2nncn2c1 [Final Cpd X76] | – | – | 829 | > 20000
